Measured values from ChEMBL document CHEMBL5137059, “An Intelligent Strategy with All-Atom Molecular Dynamics Simulations for the Design of Lipopeptides against Multidrug-Resistant Pseudomonas aeruginosa” (2022).
Values after ≈ are worked out from the molar mass of the structure shown. Positions of bridges follow the written chain, without caps; N, C: chain ends. Non-standard residues stand in square brackets, D forms with d. Residues, ends and D or L forms follow the SMILES beside them. *: point of attachment. Benzoyl(4-Ph) = O=C(c1ccc(-c2ccccc2)cc1)*; Bip = N[C@@H](Cc1ccc(-c2ccccc2)cc1)C(=O)O; dBip = N[C@H](Cc1ccc(-c2ccccc2)cc1)C(=O)O; dGly(nOct) = CCCCCCCC[C@@H](N)C(=O)O; Gly(octyl) = CCCCCCCC[C@H](N)C(=O)O; Octanoyl = CCCCCCCC(=O)*; Dab = NCC[C@H](N)C(=O)O; Bn = c1ccc(C*)cc1

Tests used:
Type in all cases: functional
Pseudomonas aeruginosa [1] = test: Antimicrobial activity against polymyxin resistant Pseudomonas aeruginosa FADDI-PA070 assessed as microbial growth inhibition measured at 18 to 20 hrs by broth microdilution assay; conditions: time 18-20 hrs
Pseudomonas aeruginosa [2] = test: Antimicrobial activity against polymyxin resistant Pseudomonas aeruginosa FADDI-PA060 assessed as microbial growth inhibition measured at 18 to 20 hrs by broth microdilution assay; conditions: time 18-20 hrs
Pseudomonas aeruginosa [3] = test: Antimicrobial activity against Pseudomonas aeruginosa PAO1R assessed as microbial growth inhibition measured after 20 hrs by CLSI-protocol based broth microdilution assay
Pseudomonas aeruginosa [4] = test: Antimicrobial activity against Pseudomonas aeruginosa PW7028 assessed as microbial growth inhibition measured after 20 hrs by CLSI-protocol based broth microdilution assay
Pseudomonas aeruginosa [5] = test: Antimicrobial activity against polymyxin resistant Pseudomonas aeruginosa FADDI-PA065 assessed as microbial growth inhibition measured after 20 hrs by CLSI-protocol based broth microdilution assay
Pseudomonas aeruginosa [6] = test: Antimicrobial activity against Pseudomonas aeruginosa PAO1 assessed as microbial growth inhibition measured after 20 hrs by CLSI-protocol based broth microdilution assay
Pseudomonas aeruginosa [7] = test: Disruption of membrane integrity in polymyxin resistant Pseudomonas aeruginosa FADDI-PA065 assessed as fold increase by measuring cellular fluorescence intensity at 8 mg/L incubated for 4 hrs by DiBAC and PI staining based flow cytometry analysis
Pseudomonas aeruginosa [8] = test: Antimicrobial activity against polymyxin resistant Pseudomonas aeruginosa FADDI-PA071 assessed as microbial growth inhibition measured after 20 hrs by CLSI-protocol based broth microdilution assay
Pseudomonas aeruginosa [9] = test: Disruption of membrane integrity in polymyxin resistant Pseudomonas aeruginosa FADDI-071 assessed as fold increase by measuring cellular fluorescence intensity at 8 mg/L incubated for 4 hrs by DiBAC and PI staining based flow cytometry analysis

## CCCCCCCC(=O)N[C@@H](CCN)C(=O)N[C@H](C(=O)N[C@@H](CCN)C(=O)N[C@H]1CCNC(=O)[C@H]([C@@H](C)O)NC(=O)[C@H](CCN)NC(=O)[C@H](CCN)NC(=O)[C@H](CSCc2ccccc2)NC(=O)[C@@H](Cc2ccccc2)NC(=O)[C@H](CCN)NC1=O)[C@@H](C)O (Octanoyl-[Dab]T[Dab][Dab][Dab][dF]C(Bn)[Dab][Dab]T; lactam 4-C)
Pseudomonas aeruginosa [1]
  MIC: > 32 µg/mL
Pseudomonas aeruginosa [2]
  MIC: 32 µg/mL (≈ 25.2 µM)

## C[C@@H](O)[C@@H]1NC(=O)[C@H](CCN)NC(=O)[C@H](CCN)NC(=O)[C@H](Cc2ccc(-c3ccccc3)cc2)NC(=O)[C@@H](Cc2ccccc2)NC(=O)[C@H](CCN)NC(=O)[C@@H](NC(=O)[C@H](CCN)NC(=O)[C@@H](NC(=O)[C@H](CCN)NC(=O)c2ccc(-c3ccccc3)cc2)[C@@H](C)O)CCNC1=O ({Benzoyl(4-Ph)}-[Dab]T[Dab][Dab][Dab][dF][Bip][Dab][Dab]T; lactam 4-C)
Pseudomonas aeruginosa [1]
  MIC: 16 µg/mL (≈ 11.8 µM)
Pseudomonas aeruginosa [2]
  MIC: 8 µg/mL (≈ 5.91 µM)

## CCCCCCCC(=O)N[C@@H](CCN)C(=O)N[C@H](C(=O)N[C@@H](CCN)C(=O)N[C@H]1CCNC(=O)[C@H]([C@@H](C)O)NC(=O)[C@H](CCN)NC(=O)[C@H](CCN)NC(=O)[C@H](CC(C)C)NC(=O)[C@@H](Cc2ccc(-c3ccccc3)cc2)NC(=O)[C@H](CCN)NC1=O)[C@@H](C)O (Octanoyl-[Dab]T[Dab][Dab][Dab][dBip]L[Dab][Dab]T; lactam 4-C)
Pseudomonas aeruginosa [1]
  MIC: 4 µg/mL (≈ 3.16 µM)
Pseudomonas aeruginosa [2]
  MIC: 8 µg/mL (≈ 6.32 µM)

## CCCCCCCC(=O)N[C@@H](CCN)C(=O)N[C@H](C(=O)N[C@@H](CCN)C(=O)N[C@H]1CCNC(=O)[C@H]([C@@H](C)O)NC(=O)[C@H](CCN)NC(=O)[C@H](CCN)NC(=O)[C@H](Cc2ccccc2)NC(=O)[C@@H](Cc2ccccc2)NC(=O)[C@H](CCN)NC1=O)[C@@H](C)O
Pseudomonas aeruginosa [1]
  MIC: > 32 µg/mL
Pseudomonas aeruginosa [2]
  MIC: > 32 µg/mL

## COLISTIN
Pseudomonas aeruginosa [1]
  MIC: > 128 µg/mL
Pseudomonas aeruginosa [3]
  MIC: > 32 µg/mL
Pseudomonas aeruginosa [4]
  MIC: 1 µg/mL
Pseudomonas aeruginosa [5]
  MIC: > 128 µg/mL
Pseudomonas aeruginosa [6]
  MIC: 2 µg/mL
Pseudomonas aeruginosa [7]
  fold change (FC): 2.33
Pseudomonas aeruginosa [8]
  MIC: > 128 µg/mL
Pseudomonas aeruginosa [2]
  MIC: > 128 µg/mL
Pseudomonas aeruginosa [9]
  fold change (FC): 2.33

## CCCCCCCC(=O)N[C@@H](CCN)C(=O)N[C@H](C(=O)N[C@@H](CCN)C(=O)N[C@H]1CCNC(=O)[C@H]([C@@H](C)O)NC(=O)[C@H](CCN)NC(=O)[C@H](CCN)NC(=O)[C@H](Cc2ccc(-c3ccccc3)cc2)NC(=O)[C@@H](Cc2ccccc2)NC(=O)[C@H](CCN)NC1=O)[C@@H](C)O (Octanoyl-[Dab]T[Dab][Dab][Dab][dF][Bip][Dab][Dab]T; lactam 4-C)
Pseudomonas aeruginosa [1]
  MIC: 4 µg/mL (≈ 3.08 µM)
Pseudomonas aeruginosa [2]
  MIC: 8 µg/mL (≈ 6.16 µM)

## CCCCCCCC[C@H]1NC(=O)[C@H](CCN)NC(=O)[C@@H](NC(=O)[C@H](CCN)NC(=O)[C@@H](NC(=O)[C@H](CCN)NC(=O)CCCCCCC)[C@@H](C)O)CCNC(=O)[C@H]([C@@H](C)O)NC(=O)[C@H](CCN)NC(=O)[C@H](CCN)NC(=O)[C@H](CC(C)C)NC1=O (Octanoyl-[Dab]T[Dab][Dab][Dab][dGly(nOct)]L[Dab][Dab]T; lactam 4-C)
Pseudomonas aeruginosa [1]
  MIC: 2 µg/mL (≈ 1.65 µM)
Pseudomonas aeruginosa [3]
  MIC: 8 µg/mL (≈ 6.6 µM)
Pseudomonas aeruginosa [4]
  MIC: 4 µg/mL (≈ 3.3 µM)
Pseudomonas aeruginosa [5]
  MIC: 2 µg/mL (≈ 1.65 µM)
Pseudomonas aeruginosa [6]
  MIC: 4 µg/mL (≈ 3.3 µM)
Pseudomonas aeruginosa [7]
  fold change (FC): 18.8
Pseudomonas aeruginosa [8]
  MIC: 4 µg/mL (≈ 3.3 µM)
Pseudomonas aeruginosa [2]
  MIC: 2 µg/mL (≈ 1.65 µM)
Pseudomonas aeruginosa [9]
  fold change (FC): 18.8

## CCCCCCCC[C@@H]1NC(=O)[C@@H](Cc2ccccc2)NC(=O)[C@H](CCN)NC(=O)[C@@H](NC(=O)[C@H](CCN)NC(=O)[C@@H](NC(=O)[C@H](CCN)NC(=O)CCCCCCC)[C@@H](C)O)CCNC(=O)[C@H]([C@@H](C)O)NC(=O)[C@H](CCN)NC(=O)[C@H](CCN)NC1=O (Octanoyl-[Dab]T[Dab][Dab][Dab][dF][Gly(octyl)][Dab][Dab]T; lactam 4-C)
Pseudomonas aeruginosa [1]
  MIC: 4 µg/mL (≈ 3.21 µM)
Pseudomonas aeruginosa [3]
  MIC: 8 µg/mL (≈ 6.42 µM)
Pseudomonas aeruginosa [4]
  MIC: 2 µg/mL (≈ 1.61 µM)
Pseudomonas aeruginosa [5]
  MIC: 1 µg/mL (≈ 0.803 µM)
Pseudomonas aeruginosa [6]
  MIC: 4 µg/mL (≈ 3.21 µM)
Pseudomonas aeruginosa [7]
  fold change (FC): 19.6
Pseudomonas aeruginosa [8]
  MIC: 4 µg/mL (≈ 3.21 µM)
Pseudomonas aeruginosa [2]
  MIC: 2 µg/mL (≈ 1.61 µM)
Pseudomonas aeruginosa [9]
  fold change (FC): 19.6

## CCCCCCCC[C@H]1NC(=O)[C@H](CCN)NC(=O)[C@@H](NC(=O)[C@H](CCN)NC(=O)[C@@H](NC(=O)[C@H](CCN)NC(=O)c2ccccc2)[C@@H](C)O)CCNC(=O)[C@H]([C@@H](C)O)NC(=O)[C@H](CCN)NC(=O)[C@H](CCN)NC(=O)[C@H](CC(C)C)NC1=O
Pseudomonas aeruginosa [1]
  MIC: 32 µg/mL (≈ 26.9 µM)
Pseudomonas aeruginosa [2]
  MIC: 32 µg/mL (≈ 26.9 µM)
